Experimental findings from a melting point compilation (Tetko et al.; mined from patent text by program, amines drawn as free bases though some values may be those of a salt) are described below.

For orientation: melting point means the temperature, or range, at which the solid turns liquid. On to `C=C(C(=O)OC)N(Cc1cc(C)ccc1NC(=O)c1ccccc1)S(=O)(=O)c1ccc(OC)cc1`, for which the melting point was 58 to 62 °C.

In the case of `NS(=O)(=O)c1ccc(-c2oc3cc(F)ccc3c(=O)c2-c2ccccc2F)cc1`, the melting point worked out at 188 °C.

Compound `N#CC1CN1OCc1ccc(Cl)cc1` (stereo not given) had a melting point of 45 to 48 °C.

In the case of `CCCN1C(=O)C2(CC(C)C)CC(c3ccc([N+](=O)[O-])cc3)(C2)C1=O`, the melting point was 87 to 88 °C.

Regarding `COC(=O)CCCc1cc2nc(Cl)ccc2n1S(=O)(=O)c1ccc2nc(N)sc2c1`, the melting point lay in the range of 85 to 90 °C.

Take `CCOC1CN(Cc2ccc(OC)cc2)Cc2cc(OC)c(OCc3ccccc3)cc21` (stereo not given): the melting point was 84 to 85 °C.

In turn, `Cn1c(C(F)(F)F)cc(=O)n(-c2cc(Oc3ccccc3OCc3ccccc3)c(Cl)cc2F)c1=O` registered a melting point of 50.8 °C.

For `COc1ccn2nc(-c3ccc(F)cc3)c(-c3ccc(=O)n(C)n3)c2c1`, the melting point is 221 to 222 °C.

`CCNC(=O)N(O)C(c1ccccc1)c1cc(C(C)(C)C)c(O)c(C(C)(C)C)c1` (stereo not given) registered a melting point of 158 to 160 °C.

Turning to `CCOC(=O)Cc1oc(-n2cnc3ccccc32)nc1-c1ccc(Cl)cc1`, the melting point fell in the range of 152 to 153 °C.

In the case of `COc1ccc(CCC(C)NC(Cc2ccccc2C)=NC#N)cc1` (stereo not given), the melting point fell in the range of 103 to 104 °C.

With `C#Cc1cc2c(Nc3ccc(OCc4cccc(F)c4)c(Cl)c3)ncnc2s1`, the melting point came to 197 °C.

In the case of `OC1CN(Cc2ccccc2)C1`, the melting point is 64.5 to 65.5 °C.

For the compound `Cc1cccc(Nc2cc(Nc3ccc(OCC#N)cc3)ncn2)c1`, the melting point lay in the range of 207 to 210 °C.

`O=C(C1CCCN1)N1CCN(c2nc(N3CCCC3)nc(N3CCCC3)n2)CC1` (stereo not given) returned a melting point of 143 °C.

Take `COC(=O)CCc1oc(C)nc1-c1ccc(Cl)cc1`: the melting point was in the range of 74 to 75 °C.

`CCc1[nH]c(=O)[nH]c(=O)c1N1CCN(Cc2ccccc2)CC1` came in with a melting point of 255 to 256 °C.

In turn, `Cc1ccc(-c2cn3c(n2)sc2cc(O)ccc23)cc1` had a melting point of 275 to 277 °C.

`CC(C)(C)C1=NN(c2ccc(C(=O)O)cc2)C(c2cccc([N+](=O)[O-])c2)C1` (stereo not given) yielded a melting point of 235 °C.

Compound `CN(C)CCC(=O)Nc1ccc2c(c1)C(=O)c1cc(NC(=O)CCN(C)C)ccc1C2=O` returned a melting point of 196 °C.

As for `Nc1ccc(CC(NC(=O)CCCCCCCCCCCNC(=O)C(c2ccccc2)c2ccccc2)c2ccccc2)cc1` (stereo not given), the melting point is 107 to 114 °C.

`CC(=O)c1cccc(NC(=O)c2cc(C(=O)Nc3cccc(C(C)=O)c3)cc(C(=O)Nc3cccc(C(C)=O)c3)c2)c1` yielded a melting point of 270 °C.

`Cc1cccc2c(=O)[nH]c(N3CCN(C)CC3)cc12` gave a melting point of 186 to 188 °C.

Compound `CCOC(=O)C1=C(COCc2cc(=O)[nH]c(N)n2)NC(C)=C(C(=O)OC)C1c1cccc(Cl)c1Cl` (stereo not given) displayed a melting point of 222 to 225 °C.

`O=c1cc(Br)ccn1C1CC1`: the melting point was 91 to 94 °C.

As for `O=C(O)C(Br)CCCCCc1ccc(Cl)cc1` (stereo not given), the melting point was 77 to 79 °C.

With `CCOC(=O)C(C)c1ccc2c(c1)sc1nc(=O)cc(-c3ccccc3)n12` (stereo not given), the melting point is 127 to 131 °C.

`COc1ccc(CSC(=S)N2Cc3[nH]c4ccccc4c3CC2C(=O)O)cc1` (stereo not given): the melting point was 195 to 196 °C.

In turn, `Cn1cc(-c2cccc(F)c2)c(=O)c(-c2cccc(Cl)c2)c1` yielded a melting point of 145 to 146 °C.

In turn, `NS(=O)(=O)c1ccccc1-n1cccn1` registered a melting point of 167 to 170 °C.

`Cc1ccc(C(=O)Nc2cc(-n3ccnc3C)cc(C(F)(F)F)c2)cc1Nc1nccc(-c2cccnc2)n1`: the melting point lay within 242 to 247 °C.

The compound `CCNC(=S)NS(=O)(=O)c1cc2c(cc1OC)OCCC2CNC(=O)N1CC(C)=C(CC)C1=O` (stereo not given) registered a melting point of 147 °C.

With `CC(C)c1ccc(N(Cc2ccc(N(C)C)cc2)C(=O)Nc2c(C(C)C)cccc2C(C)C)cc1`, the melting point fell in the range of 203 to 206 °C.

Compound `COc1ccc(CCNC(C)(C)CO)cc1` showed a melting point of 114 to 115 °C.

In turn, `CSc1coc2ccccc2c1=O` registered a melting point of 103 to 105 °C.

As for `O=P(Cc1ccc2ccccc2c1-c1c(CP(=O)(c2ccc(F)cc2)c2ccc(F)cc2)ccc2ccccc12)(c1ccc(F)cc1)c1ccc(F)cc1`, the melting point fell in the range of 211 to 214 °C.

`Cc1cccc(C(=O)Nc2c[nH]nc2C(=O)NCCCO)n1` returned a melting point of 196 to 197 °C.

As to `CSc1nccc(C)c1NC(=O)CSc1nc2ccccc2o1`, the melting point fell in the range of 146 to 148 °C.

Consider `COc1ccc2c(c1)CCC1C2CCC2(C)C(=O)CC(C)(C(C)C)C12` (stereo not given), for which the melting point was in the range of 113 to 115 °C.

Compound `COc1ccc(C(=O)NCCCCOc2ccc(-n3ccnc3)cc2)cc1` returned a melting point of 125 to 126 °C.

`COc1cc2c(cc1O)CC1c3c(cc(OC)c(O)c3-2)CCN1CC1CC1` (single isomer, unassigned; (+)) had a melting point of 80 to 84 °C.

Consider `CCOc1ccc(-c2nc(C=O)cs2)cc1OCC`, for which the melting point fell in the range of 84 to 87 °C.

With `COC1(c2ccc(Sc3ccc4ccccc4c3)s2)CCOCC1`, the melting point is 70 °C.

`CN1CCC(Cn2sc3cc(Cl)ccc3c2=O)CC1` returned a melting point of 86 °C.

For the compound `COc1ccc(-c2nc3sccn3c2/C=C/C(=O)c2ccc3c(c2)OCO3)cc1`, the melting point lay in the range of 189 to 191 °C.

`Cc1ccc(COc2cc(C(O)C#Cc3ccc(C(=O)O)cc3)cc3c2C(C)(C)CCC3(C)C)cc1` (stereo not given) came in with a melting point of 219 °C.

`CCc1nc2c(cnn2CC)c(NC2CCOCC2)c1CNC(=O)c1cccc(C(=O)NCc2ccc(F)c(-c3cccc(CN4CCCCC4)c3)c2)c1` gave a melting point of 128 to 131 °C.

Regarding `CCN1C=C(C(=O)OC)C(=O)CC1c1ccc(OC)c(OC)c1` (stereo not given), the melting point fell in the range of 134 to 135 °C.

`COc1cc(OC)c2c(=O)[nH]c(-c3cccc(N4CCN(CC(C)C)CC4)n3)nc2c1`: the melting point was in the range of 188 to 189 °C.

Turning to `COCCOC(=O)CC[C@@H](NC(=O)[C@@H](NC(=O)OC(C)(C)C)C(C)C)C(N)=O`, the melting point was 107 to 108 °C.

The compound `O=C(O)CCCCN1CCN(C2=Nc3ccccc3Oc3ccc(Cl)cc32)CC1` yielded a melting point of 223 to 226 °C.

In turn, `CCc1cc(CNc2nc3ccccc3o2)c(=O)[nH]c1C` yielded a melting point of 211 to 213 °C.

`CCC(C)c1cc(Cl)cc(Cl)c1OCC(=O)NCCCCNC(=O)OC(C)(C)C` (stereo not given) showed a melting point of 50 °C.

For the compound `CCC(=O)Nc1ccc2ncnc(Nc3cccc(Br)c3)c2c1`, the melting point is 265 to 266 °C.

Consider `COc1cc2c(cc1OC)OCCC(C(=O)N1CCN(C(=O)c3cc(OC)c(OC)c(OC)c3)CC1)=C2`, for which the melting point was in the range of 132 to 134 °C.

`CC(CO)C1CCC2C3CC=C4CC(O)CC(O)C4(C)C3CCC12C` (stereo not given) came in with a melting point of 205 to 207 °C.

As to `Cc1cccc(-n2ncc(C)c2-c2cc3cnccc3s2)n1`, the melting point was 155 to 156 °C.

Regarding `CCOC(=O)C1=C(COCc2nnn[nH]2)NC(C)=C(C(=O)OC)C1c1ccccc1Cl` (stereo not given), the melting point is 122 to 124 °C.

With `CCOC(=O)Cc1sc(Sc2ccc(OC)nn2)nc1C`, the melting point lay in the range of 47 to 49 °C.

Turning to `CSc1ccc(C)cc1C(N)=S`, the melting point came out at 160 °C.
